# Experimental data published in PMC9404989, “Design and Evaluation of Short Bovine Lactoferrin-Derived Antimicrobial Peptides against Multidrug-Resistant Enterococcus faecium” (Antibiotics, 2022).
# “Also recorded” adds a separate entry of the source. No end group written: not given here.
# What was measured:
# [1] = tested on: E. faecium strain C68 exponential cells; assay: Exponential cell time-kill assay; assay type: cell-based, Enterococcus faecium; settings: 10× MIC, PBS
# Method: For the generation of antibiotic-induced persister cells, we followed an established protocol. In brief, 25 mL of E. faecium strain C68 culture was grown to the stationary phase and then treated with gentamicin at 400 μg/mL for 5 h. We then disposed of the antibiotic-containing media and regrew the bacteria for another 18 h in fresh media. To produce stable persister cells, we repeated the cycle of antibiotic exposure and regrowth five times. The bacteria culture was then washed with the same volume of phosphate-buffered saline (PBS) 3× times and adjusted to 1 × 10^7 CFU/mL in PBS. For killing kinetics of the persister cells, we added 1 mL of the cell suspension to the wells of a 2 mL deep well assay block (Cat No. 3960, Corning, NY, USA) containing 10× MICs of 5L and 6L and incubated them at 37 °C, with shaking at 225 rpm. At specific times (0, 15, 30, 60, and 120 min), we collected 20 μL samples, diluted them serially, and then plated them on tryptic soy agar (TSA) (BD Difco, Franklin Lakes, NJ, USA) plates for 18 h at 37 °C for colony counting. We performed the experiments in duplicate. As a comparison, we prepared the exponential cells of E. faecium strain C68 in PBS and analyzed their killing kinetics in the same manner as described for persister cells.
# [2] = tested on: E. faecium strain C68 on porcine skin; assay: Ex vivo porcine skin infection assay; parameters: species or system Enterococcus faecium; settings: 1 × 10^6 CFU, 4 h treatment
# Text: We evaluated the efficacy of designed lactoferrin AMPs in an ex vivo porcine skin model previously described with minor modifications. We first cleaned the shaved porcine skin (Fisher Scientific, Hampton, NH, USA) with 70% ethanol and then water, and glued polyethylene tubing (5 mm) (Nalgene VWR 228-0170, Radnor, PA, USA) to the skin samples with cyanoacrylate glue (Fisher Scientific, Hampton, NH, USA). Using disposable razors, we cut each piece of skin glued to the tube and inserted it into a 12-well tissue culture plate (Falcon, Cat No. 353182). We infected each skin with 1 × 10^6 CFU of exponential or persister E. faecium strain C68 cells in a total volume of 10 µL. Following an incubation of 1 h at 37 °C, we treated the skin with 50 µL with 5L and 6L at concentrations of 10× or 1× MIC. After an additional 4 h of incubation at 37 °C, we washed each tubing well with 250 µL of PBS (pH 7.4) containing 0.05% Triton X-100 to remove bacteria. After serially diluting the bacterial sample, we counted their CFUs.
# [3] = tested on: E. faecium strain C68 established biofilms; assay type: cell-based, Enterococcus faecium; settings: for established biomass reduced: at 32 µg/mL, 24 h established biofilms
# Method: We prepared exponential cultures of E. faecium strain C68 (adjusted to 1 × 10^8 CFU/mL) in BHI media (supplemented with 0.2% glucose) from overnight grown cultures. We added 100 µL of the bacterial culture to wells of flat-bottomed 96-well polystyrene microtiter plates (Cat No. 3595, Corning, NY, USA). We then incubated the plates at 37 °C for 24 h in static conditions to allow biofilm formation. After incubation, we carefully pipetted out the media and washed the wells with PBS (Gibco, Waltham, MA, USA) to remove loosely attached planktonic cells. We treated the established biofilms in each well with 10 µL of serially diluted 10× peptide solution, followed by the addition of 90 μL of BHI media (supplemented with 0.2% glucose). The plates were incubated for another 24 h at 37 °C before processing for biomass and live-cell contents. We quantitated the concentration of peptide that disrupts 50% of established biofilms (MBEC50).
# [4] = tested on: E. faecium strain C68; assay: microbe, parasite or virus in culture; assay type: cell-based, Enterococcus faecium; settings: strain C68, 18 h
# Method: To determine the MICs of peptides, we used the broth microdilution method described by the Clinical and Laboratory Standards Institute. We made serial dilutions of 10× concentration (10 µL) for each peptide in duplicates in 96-well plates (Cat No. 3595, Corning, New York, NY, USA). We added 90 µL of logarithmic-phase bacteria at 5 × 10^5 CFU/mL (in BHI media) to the peptides and then incubated the plates at 37 °C for 18 h. We measured the OD600 absorbance readings using the Spectra Max i3x spectrophotometer (Molecular Devices, San Jose, CA, USA) and determined the MIC as the peptide concentration that inhibits the growth of bacteria.
# To investigate the activity of peptides in various salt concentrations, we included physiologically relevant salts in the BHI medium.
# [5] = tested on: E. faecium strain C68; assay: Growth inhibition assay; assay type: cell-based, Enterococcus faecium; settings: 32 µg/mL, OD600 over 4 h
# Method: We cultivated overnight cultures of E. faecium strain C68 in BHI media. We inoculated the bacteria in a fresh BHI medium the next day to achieve the exponential phase and adjusted the bacterial density to 1 × 10^8 CFU/mL. We added 90 µL of this bacterial culture to each well of the microtiter plates (Cat No. 3595, Corning, New York, NY, USA) containing 10 µL of serially diluted 10× peptide solution. We monitored the bacterial growth on a SpectraMax i3x spectrophotometer (Molecular Devices, San Jose, CA, USA) by taking OD600 readings every 10 min for 4 h.
# [6] = strain C68 established biofilms, 24 h
Substance,time to eliminate all 10^7 CFU of exponential cells [1] [min],"bacterial load reduction, exponential cells, 1× MIC [2]","bacterial load reduction, persister cells, 1× MIC [2] [log]","bacterial load, exponential cells, 10× MIC [2]","bacterial load, persister cells, 10× MIC [2]",established biomass reduced [3] [%],"MBEC50 (established biomass) [3, 6] [µg/mL]","live bacteria killed within matured biofilm matrix [3, 6] [%]",MIC + CaCl2 (2.5 mM) [4] [µg/mL],MIC + MgSO4 (1 mM) [4] [µg/mL],MIC + NaCl (150 mM) [4] [µg/mL],MIC + ZnSO4 (8 µM) [4] [µg/mL],growth inhibition [5]
RRWLWLRRWLWR-NH2 [Peptide 5L],120,1 log,1,effectively eliminated almost all exponential cells,effectively eliminated all; also recorded: completely eliminated persister cells,75,16,50,16,8,4,4,
RRWLWRLRWLWR-NH2 [Peptide 6L],60,1.2 logs,1,effectively eliminated almost all exponential cells,completely eliminated persister cells,75,16,,8,8,4,4,inhibited the maximum growth
